Data on 16 compounds can be found in ChEMBL document CHEMBL5226294, “Natural bioeffective cyclooligopeptides from plant seeds of Annona genus” (Eur J Med Chem, 2021).

Converted amounts (≈) assume the structure as drawn. Where a SMILES comes first, the peptide text is derived from it. [ ]: non-standard residue; d: D form. Met(O) = CS(=O)CC[C@H](N)C(=O)O; Dab = NCC[C@H](N)C(=O)O

Broadly, the CC50 is the concentration giving 50% cytotoxicity. For orientation: IC50 means the concentration that gives 50% inhibition. Broadly, the MIC is the smallest concentration in the dilution series that meets the test's criterion for growth inhibition.

A short description of data set [1]: Cytotoxicity against mouse DLA cell assessed as reduction in cell viability incubated for 3 hrs by tryphan blue dye based assay. Type of data set: toxicity. Particulars: DLA cells.
Data set [2] can be described thus: Cytotoxicity against mouse EAC cell assessed as reduction in cell viability incubated for 3 hrs by tryphan blue dye based assay. Particulars: EAC (Ehrlich) cells. It is filed as toxicity.
Data set [3] concerns KB. Briefly: Cytotoxicity against human KB cells assessed as reduction in cell viability. Type of data set: functional, cell-based.
A further data set concerns DU-145. Briefly: Cytotoxicity against human DU-145 cells assessed as inhibition of cell growth incubated for 72 hrs by XTT assay. It is filed as functional, cell-based. Particulars: DU-145, 72 h. On the technique in general: Tetrazolium dyes change colour on reduction, which living cells bring about.
For data set [4], the system named is KB. Briefly: Cytotoxicity against human KB cells assessed as reduction in cell viability incubated for 3 days. Conditions: 72 h. It is filed as functional, cell-based.
Another data set deals with HL-60. The experiment in a line: Cytotoxicity against human HL-60 cells assessed as inhibition of cell growth at 6.25 to 100 uM incubated for 72 hrs by MTT assay. Type of data set: functional. Also noted: scale not given: the % may be the effect or the level left. Particulars: dose 6.25-100 µM.
Data set [5] relates to KB. The experiment in a line: Cytotoxicity against human KB cells assessed as inhibition of cell growth at 6.25 to 100 uM incubated for 72 hrs by MTT assay. Type of data set: functional. Set-up: scale not given: the % may be the effect or the level left. Conditions: dose 6.25-100 µM.
Data set [6] is described as follows: Cytotoxicity against mouse DLA cell assessed as reduction in cell viability. It is filed as toxicity, cell-based. Particulars: DLA cells.
The subject of data set [7] is Microsporum audouinii. The experiment in a line: Antimicrobial activity against Microsporum audouinii MUMC 545 assessed as inhibition of microbial growth by disk diffusion method. Type of data set: functional. (Agar diffusion results depend on both activity and mobility in agar.)
The subject of data set [8] is Trichophyton mentagrophytes. Briefly: Antimicrobial activity against Trichophyton mentagrophytes MUMC 665 assessed as inhibition of microbial growth by disk diffusion method. Type of data set: functional.
Data set [9] in a line: Cytotoxicity against mouse EAC cell assessed as reduction in cell viability. Type of data set: toxicity, cell-based. Particulars: EAC (Ehrlich) cells.
The subject of data set [10] is Escherichia coli. Briefly: Antibacterial activity against Escherichia coli MUMC 106 assessed as inhibition of bacterial growth incubated for 18 hrs by disk diffusion method. Type of data set: functional.
In data set [11] the test system is Pseudomonas aeruginosa. The experiment in a line: Antibacterial activity against Pseudomonas aeruginosa MUMC 266 assessed as increase in inhibition of bacterial growth incubated for 18 hrs by disk diffusion method relative to ciprofloxacin. It is filed as functional. Set-up: scale not given: the % may be the effect or the level left.
Data set [12] relates to Pseudomonas aeruginosa. Briefly: Antibacterial activity against Pseudomonas aeruginosa MUMC 266 assessed as inhibition of bacterial growth incubated for 18 hrs by disk diffusion method. It is filed as functional.
Data set [13] has as its system Candida albicans. Briefly: Antifungal activity against Candida albicans MUMC 29 assessed as increase in inhibition of fungal growth incubated for 48 hrs by disk diffusion method relative to griseofulvin. It is filed as functional. Also noted: scale not given: the % may be the effect or the level left.
Data set [14] concerns Candida albicans. Briefly: Antifungal activity against Candida albicans MUMC 29 assessed as inhibition of fungal growth incubated for 48 hrs by disk diffusion method. Type of data set: functional.
In data set [15] the test system is Escherichia coli. Briefly: Antibacterial activity against Escherichia coli MUMC 106 assessed as increase in inhibition of bacterial growth incubated for 18 hrs by disk diffusion method relative to ciprofloxacin. It is filed as functional. Also noted: scale not given: the % may be the effect or the level left.
The test system of another data set is Klebsiella pneumoniae. Briefly: Antibacterial activity against Klebsiella pneumoniae assessed as inhibition of bacterial growth incubated for 18 hrs by disc diffusion method. It is filed as functional.
In data set [16] the test system is Trichophyton mentagrophytes. The experiment in a line: Antifungal activity against Trichophyton mentagrophytes assessed as inhibition of fungal growth incubated for 48 hrs by serial plate dilution method. It is filed as functional.
Data set [17] relates to Microsporum audouinii. The experiment in a line: Antifungal activity against Microsporum audouinii assessed as inhibition of fungal growth incubated for 48 hrs by serial plate dilution method. It is filed as functional.
The test system of data set [18] is Pseudomonas aeruginosa. Briefly: Antibacterial activity against Pseudomonas aeruginosa assessed as inhibition of bacterial growth incubated for 18 hrs by disc diffusion method. Type of data set: functional.

As to `O=c1[nH]cc(F)c(=O)[nH]1` [FLUOROURACIL], the CC50 at 3 h in [1] and in [2] was 37.4 µM each time.

In the case of `CC(C)C[C@@H]1NC(=O)[C@H](C(C)C)NC(=O)[C@H](C(C)C)NC(=O)CNC(=O)[C@H](C)NC(=O)CNC(=O)[C@@H]2CCCN2C1=O` (cyclo(AGVVLPG)), the IC50 in the data set with KB [3] stood at 0.73 µM.

For the compound `CC(C)C[C@@H]1NC(=O)CNC(=O)[C@@H]2CCCN2C(=O)[C@H]([C@@H](C)O)NC(=O)[C@H](C(C)C)NC(=O)[C@H](C)NC(=O)[C@H](CC(N)=O)NC1=O`, the IC50 in the data set on KB [3] worked out at 0.97 µM.

For `COc1cccc2c1C(=O)c1c(O)c3c(c(O)c1C2=O)C[C@@](O)(C(=O)CO)C[C@@H]3O[C@H]1C[C@H](N)[C@H](O)[C@H](C)O1` [DOXORUBICIN], the half-inhibitory concentration (IC50) turned out to be 0.02 µM with KB [3] and 1.1 µM in the data set with DU-145.

`CC[C@H](C)[C@@H]1NC(=O)[C@H](C)NC(=O)[C@H](C(C)C)NC(=O)[C@H]([C@@H](C)O)NC(=O)CNC(=O)[C@H](Cc2ccc(O)cc2)NC(=O)[C@H](CO)NC(=O)[C@H](CCN)NC(=O)[C@@H]2CCCN2C1=O` (cyclo(AIP[Dab]SYGTV)): in the data set with DU-145, the IC50 came out at 27.3 µM.

For the compound `CC[C@H](C)[C@@H]1NC(=O)[C@@H]2CCCN2C(=O)[C@H](CC(C)C)NC(=O)[C@H](CCSC)NC(=O)CNC(=O)[C@H]([C@@H](C)O)NC(=O)[C@H](CCC(N)=O)NC(=O)[C@@H]2CCCN2C1=O` (cyclo(GMLPIPQT)), in the data set on KB [3], the IC50 stood at 0.6 µM.

Turning to `CC[C@H](C)[C@@H]1NC(=O)[C@@H]2CCCN2C(=O)[C@H](CC(C)C)NC(=O)[C@H](CC[S+](C)[O-])NC(=O)CNC(=O)[C@H]([C@@H](C)O)NC(=O)[C@H](CCC(N)=O)NC(=O)[C@@H]2CCCN2C1=O` (stereo partly drawn) (cyclo(G[Met(O)]LPIPQT)), the IC50 with KB [3] came to 45 µM.

In the case of `CC[C@H](C)[C@@H]1NC(=O)[C@@H]2CCCN2C(=O)[C@H](C(C)C)NC(=O)[C@H](C)NC(=O)CNC(=O)[C@@H]2CCCN2C(=O)[C@H](C)NC(=O)[C@H](Cc2ccc(O)cc2)NC1=O` (cyclo(APGAVPIY)), the IC50 with KB [3] and in the data set on KB [4] was 0.52 µM throughout. Further, the cytotoxic concentration (CC50) at 3 h was determined as 6.72 µM in data set [1] and 11.9 µM in [2].

On to `CC[C@H](C)[C@@H]1NC(=O)[C@@H]2CCCN2C(=O)CNC(=O)[C@H](C)NC(=O)[C@H](Cc2ccc(O)cc2)NC1=O` (cyclo(AGPIY)), for which the Activity in the data set on HL-60 and with KB [5] was below 30% each time.

Take `CC(C)C[C@@H]1NC(=O)[C@H](Cc2c[nH]c3ccccc23)NC(=O)[C@H](C)NC(=O)[C@H](CC(N)=O)NC(=O)[C@@H]2CCCN2C(=O)[C@H]([C@@H](C)O)NC(=O)CNC1=O` (cyclo(AWLGTPN)): the CC50 in [6] was 11.6 µM; in data set [9], 14.1 µM. Further, the MIC (in the data set on Microsporum audouinii [7]; in data set [8]) was 6 µg/mL throughout.

Take `CC[C@H](C)[C@@H]1NC(=O)CNC(=O)[C@H](CCSC)NC(=O)CNC(=O)[C@@H]2CCCN2C(=O)[C@H](CCSC)NC(=O)[C@@H]2CCCN2C(=O)[C@H](CC(C)C)NC(=O)[C@H](Cc2ccc(O)cc2)NC1=O` (cyclo(GIYLPMPGM)): in the data set on KB [4], the IC50 is 0.06 µM.

On to `CC(C)C[C@@H]1NC(=O)CNC(=O)[C@@H]2CCCN2C(=O)[C@H]([C@@H](C)O)NC(=O)[C@H](C(C)C)NC(=O)[C@H](C)NC(=O)[C@H](CO)NC1=O`, for which the half-maximal inhibitory concentration (IC50) in the data set on DU-145 amounted to 54.9 µM.

In the case of `CC[C@H](C)[C@@H]1NC(=O)CNC(=O)[C@H](CCSC)NC(=O)CNC(=O)[C@@H]2CCCN2C(=O)[C@H](CC(C)C)NC(=O)[C@H](Cc2ccc(O)cc2)NC1=O` (cyclo(GIYLPGM)), the concentration for half-maximal inhibition (IC50) with KB [3] and in the data set with KB [4] was 16.5 µM each time.

Consider `CC(C)C[C@@H]1NC(=O)[C@H](Cc2ccc(O)cc2)NC(=O)[C@@H]2CCCN2C(=O)[C@@H]2CCCN2C(=O)[C@H](C(C)C)NC(=O)CNC(=O)[C@@H]2CCCN2C1=O` (cyclo(GVPPYLP)), for which the Activity in the data set on HL-60 and with KB [5] was below 30% each time.

On to `CC(C)C[C@@H]1NC(=O)CNC(=O)[C@H](Cc2ccccc2)NC(=O)[C@H](Cc2ccc(O)cc2)NC(=O)[C@@H]2CCCN2C(=O)CNC1=O` [Cherimolacyclopeptide E] (cyclo(FGLGPY)), for which the MIC with Escherichia coli [10] is 12.5 µg/mL (≈ 19.7 µM); with Pseudomonas aeruginosa [12] it was 6 µg/mL (≈ 9.45 µM); with Candida albicans [14], 6 µg/mL (≈ 9.45 µM). For the same compound, the Activity with Pseudomonas aeruginosa [11] turned out to be 12%; with Candida albicans [13], 25%; with Escherichia coli [15] it was 12%. Besides, the figures for the CC50 at 3 h in data set [1] and in [2] were 2.76 µM and 4.96 µM, respectively. Moreover, the IC50 with KB [4] came to 0.017 µM.

On to `CC(C)C[C@@H]1NC(=O)CNC(=O)[C@@H]2CCCN2C(=O)[C@H](CC(N)=O)NC(=O)[C@H](C)NC(=O)[C@H](Cc2ccc(O)cc2)NC(=O)[C@@H]2CCCN2C1=O` [CYCLOMONTANIN D] (cyclo(ANPGLPY)), for which the MIC (with Klebsiella pneumoniae; in data set [16]; in the data set on Microsporum audouinii [17]; in the data set on Pseudomonas aeruginosa [18]) was 6 µg/mL (≈ 8.42 µM) each time.
